Data reported in ChEMBL document CHEMBL3739322, “Novel oxime-bearing coumarin derivatives act as potent Nrf2/ARE activators in vitro and in mouse model” (Eur J Med Chem, 2015).

Target: T1, Nuclear factor erythroid 2-related factor 2 (Homo sapiens) (UniProt Q16236)
T1 sequence (whole entry): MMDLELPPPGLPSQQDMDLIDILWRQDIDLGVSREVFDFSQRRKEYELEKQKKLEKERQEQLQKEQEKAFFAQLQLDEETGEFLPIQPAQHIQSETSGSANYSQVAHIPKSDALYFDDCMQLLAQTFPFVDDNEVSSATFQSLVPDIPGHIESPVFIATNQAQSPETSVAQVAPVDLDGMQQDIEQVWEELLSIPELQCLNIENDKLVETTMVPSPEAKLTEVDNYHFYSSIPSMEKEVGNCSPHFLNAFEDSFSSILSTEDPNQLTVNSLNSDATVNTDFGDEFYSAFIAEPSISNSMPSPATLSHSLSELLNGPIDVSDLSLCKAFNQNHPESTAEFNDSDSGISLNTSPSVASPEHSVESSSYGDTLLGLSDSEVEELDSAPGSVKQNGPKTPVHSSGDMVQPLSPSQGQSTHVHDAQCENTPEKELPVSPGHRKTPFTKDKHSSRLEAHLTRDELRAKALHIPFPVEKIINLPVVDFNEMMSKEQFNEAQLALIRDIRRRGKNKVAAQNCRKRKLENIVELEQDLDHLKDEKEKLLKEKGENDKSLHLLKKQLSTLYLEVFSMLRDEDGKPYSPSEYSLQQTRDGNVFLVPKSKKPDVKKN
Assay: Activation of Nrf2 in human HSC3-ARE9 cells assessed as increase of ARE-mediated GCLC mRNA expression at 50 uM after 24 hrs by RT-PCR analysis relative to control
Format: cell-based
Conditions: not given

SMILES	fold change (FC)
CC(C)(C)c1cc(O)ccc1O [E319]	2

Test system: not listed separately
Assay: Antioxidant activity assessed as DPPH radical scavenging activity
Format: physicochemical
Conditions: not given

SMILES	EC50 [µM]
O=c1oc2ccccc2cc1OC/C(=N\O)c1ccc(F)cc1	> 400
O=c1oc2ccccc2cc1O [3-HYDROXYCOUMARIN]	65.8
O=c1ccc2ccc(O)cc2o1 [UMBELLIFERONE]	> 400
O=c1ccc2cc(OC/C(=N\O)c3ccccc3)ccc2o1	> 400
CC(C)(C)c1cc(O)ccc1O [E319]	57.5
O=c1ccc2cc(O)ccc2o1 [6-HYDROXYCOUMARIN]	> 400
O=c1cc(O)c2ccccc2o1 [4-HYDROXYCOUMARINS]	351

Target: T1, Nuclear factor erythroid 2-related factor 2 (Homo sapiens)
Assay: Activation of Nrf2 in human HSC3-ARE9 cells assessed as increase of ARE-mediated AKR1C1 mRNA expression at 50 uM after 24 hrs by RT-PCR analysis relative to control
Format: cell-based
Conditions: not given

SMILES	fold change (FC)
CC(C)(C)c1cc(O)ccc1O [E319]	2.3

Target: T1, Nuclear factor erythroid 2-related factor 2 (Homo sapiens)
Assay: Activation of Nrf2 in human HSC3-ARE9 cells assessed as increase of ARE-mediated luciferase expression after 24 hrs
Format: cell-based
Conditions: not given

SMILES	Activity
O=c1oc2ccccc2cc1OC/C(=N\O)c1ccc(F)cc1	Dose-dependent effect
O=c1ccc2cc(OC/C(=N\O)c3ccccc3)ccc2o1	Dose-dependent effect

Test system: not listed separately
Assay: Cytotoxicity against human HSC3 cells after 24 hrs by MTT assay
Format: cell-based
Conditions: hsc-3, 24 h

SMILES	Activity
O=c1oc2ccccc2cc1OC/C(=N\O)c1ccc(F)cc1	Non-toxic
O=c1ccc2cc(OC/C(=N\O)c3ccccc3)ccc2o1	Non-toxic

Target: T1, Nuclear factor erythroid 2-related factor 2 (Homo sapiens)
Assay: Activation of Nrf2 in human HSC3-ARE9 cells assessed as increase of ARE-mediated luciferase expression at 50 uM after 24 hrs relative to control
Format: cell-based
Conditions: not given

SMILES	fold change (FC)
O=C(COc1ccc2oc(=O)ccc2c1)c1ccccc1	2.54
O=c1oc2ccccc2cc1OC/C(=N\O)c1ccc(F)cc1	3.25
O=c1ccc2ccc(OC/C(=N\O)c3ccc4ccccc4c3)cc2o1	1.04
O=C(COc1ccc2oc(=O)ccc2c1)Nc1ccc2ccccc2c1	0.91
O=C(COc1cc(=O)oc2ccccc12)c1ccc(-c2ccccc2)cc1	0.42
COc1ccc(C(=O)COc2cc3ccccc3oc2=O)cc1	1.54
COc1ccc(/C(COc2cc3ccccc3oc2=O)=N/O)cc1	1.49
O=C(COc1ccc2ccc(=O)oc2c1)Nc1ccc(-c2ccccc2)cc1	1.09
O=C(COc1ccc2ccc(=O)oc2c1)Nc1ccccc1	2.27
O=C(COc1ccc2oc(=O)ccc2c1)c1ccc2ccccc2c1	0.61
O=C(COc1cc(=O)oc2ccccc12)Nc1ccccc1	1.06
C/C(COc1ccc2ccc(=O)oc2c1)=N\O	1.68
O=C(COc1cc(=O)oc2ccccc12)c1ccc2ccccc2c1	1.52
O=c1cc(OC/C(=N\O)c2ccccc2)c2ccccc2o1	1.35
O=c1ccc2ccc(OC/C(=N\O)c3ccc(F)cc3)cc2o1	1.32
O=c1ccc2cc(OC/C(=N\O)c3ccc(F)cc3)ccc2o1	2.32
O=C(COc1cc2ccccc2oc1=O)c1ccc(-c2ccccc2)cc1	0.98
O=C(COc1ccc2oc(=O)ccc2c1)Nc1ccccc1	2.08
COc1ccc(C(=O)COc2ccc3oc(=O)ccc3c2)cc1	0.82
O=c1oc2ccccc2cc1OC/C(=N\O)c1ccc2ccccc2c1	1.31
O=C(COc1cc2ccccc2oc1=O)Nc1ccc2ccccc2c1	1.13
O=c1cc(OC/C(=N\O)c2ccc(-c3ccccc3)cc2)c2ccccc2o1	1.32
O=c1oc2ccccc2cc1O [3-HYDROXYCOUMARIN]	0.94
COc1ccc(NC(=O)COc2ccc3ccc(=O)oc3c2)cc1	0.98

SMILES	fold change (FC)
COc1ccc(C(=O)COc2ccc3ccc(=O)oc3c2)cc1	1.07
O=C(COc1ccc2ccc(=O)oc2c1)Nc1ccc2ccccc2c1	1.06
O=C(COc1cc(=O)oc2ccccc12)c1ccccc1	1.98
O=c1oc2ccccc2cc1OC/C(=N\O)c1ccc(-c2ccccc2)cc1	1.44
O=c1ccc2ccc(O)cc2o1 [UMBELLIFERONE]	0.98
O=c1ccc2cc(OC/C(=N\O)c3ccccc3)ccc2o1	3.02
O=C(COc1cc2ccccc2oc1=O)Nc1ccccc1	2.51
O=C(COc1cc2ccccc2oc1=O)c1ccccc1	1.72
O=c1cc(OC/C(=N\O)c2ccc3ccccc3c2)c2ccccc2o1	1.43
O=C(COc1ccc2ccc(=O)oc2c1)Nc1ccc(F)cc1	1.16
CC(=O)COc1cc2ccccc2oc1=O	0.92
O=C(COc1cc2ccccc2oc1=O)Nc1ccc(-c2ccccc2)cc1	1.22
CC(C)(C)c1cc(O)ccc1O [E319]	2.01
O=c1ccc2ccc(OC/C(=N\O)c3ccccc3)cc2o1	2.16
O=C(COc1ccc2ccc(=O)oc2c1)c1ccc(-c2ccccc2)cc1	0.85
C/C(COc1cc(=O)oc2ccccc12)=N\O	1.37
O=c1ccc2cc(O)ccc2o1 [6-HYDROXYCOUMARIN]	0.99
COc1ccc(C(=O)COc2cc(=O)oc3ccccc23)cc1	1.36
COc1ccc(/C(COc2ccc3oc(=O)ccc3c2)=N/O)cc1	1.33
O=C(COc1ccc2ccc(=O)oc2c1)c1ccccc1	1.93
O=C(COc1ccc2oc(=O)ccc2c1)c1ccc(-c2ccccc2)cc1	0.85
C/C(COc1cc2ccccc2oc1=O)=N\O	1.63
O=C(COc1ccc2oc(=O)ccc2c1)Nc1ccc(-c2ccccc2)cc1	0.95
O=c1ccc2ccc(OC/C(=N\O)c3ccc(-c4ccccc4)cc3)cc2o1	0.9

SMILES	fold change (FC)
COc1ccc(NC(=O)COc2cc(=O)oc3ccccc23)cc1	1.34
COc1ccc(/C(COc2cc(=O)oc3ccccc23)=N/O)cc1	1.76
C/C(COc1ccc2oc(=O)ccc2c1)=N\O	1.64
O=C(COc1cc(=O)oc2ccccc12)c1ccc(F)cc1	1.26
O=C(COc1cc(=O)oc2ccccc12)Nc1ccc(F)cc1	1.11
O=C(COc1cc(=O)oc2ccccc12)Nc1ccc2ccccc2c1	1.37
COc1ccc(/C(COc2ccc3ccc(=O)oc3c2)=N/O)cc1	1.28
O=c1cc(OC/C(=N\O)c2ccc(F)cc2)c2ccccc2o1	1.67
COc1ccc(NC(=O)COc2ccc3oc(=O)ccc3c2)cc1	0.89
O=C(COc1cc2ccccc2oc1=O)c1ccc2ccccc2c1	0.98
O=C(COc1ccc2oc(=O)ccc2c1)c1ccc(F)cc1	1.58
COc1ccc(NC(=O)COc2cc3ccccc3oc2=O)cc1	0.95
O=C(COc1ccc2ccc(=O)oc2c1)c1ccc(F)cc1	1.14
O=c1ccc2cc(OC/C(=N\O)c3ccc(-c4ccccc4)cc3)ccc2o1	1.5
O=C(COc1cc(=O)oc2ccccc12)Nc1ccc(-c2ccccc2)cc1	1.17
O=C(COc1cc2ccccc2oc1=O)c1ccc(F)cc1	1.64
O=C(COc1ccc2ccc(=O)oc2c1)c1ccc2ccccc2c1	0.17
O=C(COc1ccc2oc(=O)ccc2c1)Nc1ccc(F)cc1	0.95
CC(=O)COc1ccc2oc(=O)ccc2c1	1.03
O=c1ccc2cc(OC/C(=N\O)c3ccc4ccccc4c3)ccc2o1	1.46
O=C(COc1cc2ccccc2oc1=O)Nc1ccc(F)cc1	1.34
CC(=O)COc1cc(=O)oc2ccccc12	0.79
CC(=O)COc1ccc2ccc(=O)oc2c1	1.09
O=c1cc(O)c2ccccc2o1 [4-HYDROXYCOUMARINS]	0.84

Target: T1, Nuclear factor erythroid 2-related factor 2 (Homo sapiens)
Assay: Activation of Nrf2 in human HSC3-ARE9 cells assessed as increase of ARE-mediated Prx1 mRNA expression at 50 uM after 24 hrs by RT-PCR analysis relative to control
Format: cell-based
Conditions: not given

SMILES	fold change (FC)
CC(C)(C)c1cc(O)ccc1O [E319]	1.1
